Here are results for three molecules from patent US20160030530A1, “SULFORAPHANE/SULFORAPHANE PRECURSOR AND PHYTOSTEROL/PHYTOSTANOL COMPOSITIONS” (NUTRAMAX LABORATORIES, INC., priority 2013, published 2016).

SMILES strings stand for the structures.

One assay relates to chondrocytes. The conditions noted are these: IL-1β-induced NF-κB pathway; cited from earlier work.
The test system of assay [1] is myrosinase. Kind of assay: Equimolar conversion of glucoraphanin to sulforaphane, role of ascorbic acid in modulating myrosinase activity. It counts as biochemical, broccoli. The conditions noted are these: control sample, without ascorbic acid. The method, then:
A two-part experiment was conducted to further elucidate the role of ascorbic acid in modulating myrosinase activity. […] A control sample contained no ascorbic acid, and the enzymatic conversion proceeded unassisted by a co-factor. PART 1. […] PART 2. While keeping the amount of broccoli seed extract fixed at 250 mg, the concentration of ascorbic acid was varied from 0.4 mmol/Liter to 3.8 mmol/Liter. The table below presents glucoraphanin and sulforaphane expressed in μmoles.

The subject of assay [2] is myrosinase. Nature of the assay: Conversion of glucoraphanin to sulforaphane in the presence of Simulated Intestinal Fluid. The conditions noted are these: 0.25 to 1.00 mmol/Liter ascorbic acid, 38° C., 2 hours. Type of assay: biochemical, broccoli. The method, then: Simulated Intestinal Fluid (SIF) powder, a commercially supplied concentrate closely approximating the human intestinal content in terms of composition, pH and ionic strength, was used. The experiment utilized a USP Dissolution Apparatus 2 (paddles), where into six dissolution vessels 500 mL of Simulated Intestinal Fluid was dispensed, along with 150 mg of freeze-dried broccoli sprout powder as a source of myrosinase. In vessels 1-4, the concentration of ascorbic acid was varied from 0.25 to 1.00 mmol/Liter; in vessel 5, in addition to 1 mmol/Liter ascorbic acid, 3.125 g of pancreatin (8×USP) was suspended; in vessel 6, in addition to 1 mmol/Liter ascorbic acid, and 3.125 g of pancreatin (8×USP), a doubled amount of freeze-dried broccoli sprout powder (300 mg) was added. After vessels were brought to 38° C., 250 mg of glucoraphanin-rich (12%, w/w) broccoli seed extract was added to each, and the resulting suspensions were stirred at 75 RPM for 2 hours. Aliquots were withdrawn every 15 minutes, and assayed for sulforaphane.

Assay [3] relates to broccoli sprout-derived myrosinase. Nature of the assay: Consumption of glucoraphanin as a function of the ascorbic acid concentration (hydrolysis by myrosinase). It counts as biochemical. The method, then: About 250 mg of broccoli seed extract containing about 12% (w/w) glucoraphanin were subjected to hydrolysis by a fixed concentration of broccoli sprout-derived myrosinase in the presence of variable concentration of ascorbic acid, ranging from 0 to 600 μmoles/Liter. The reaction mixtures were thermostated at 38° C.; aliquots were withdrawn every 15 minutes for 60 minutes, and concentration of glucoraphanin determined chromatographically. The rate of glucoraphanin consumption was interpreted as the rate its conversion to sulforaphane. Graphical representation of glucoraphanin content reduction as a function of increasing ascorbic acid concentration results in a series of linear plots; the slopes of the linear regression lines reflect the rate of glucoraphanin consumption, in μmoles/minute. It is apparent that in the presence of 600 μmoles/Liter concentration of ascorbic acid, the reaction rate increased 13-fold relative to that which proceeded in the absence of modulatory effects of ascorbic acid.

As to `CC[C@H](/C=C/[C@@H](C)[C@H]1CC[C@H]2[C@@H]3CC=C4C[C@@H](O)CC[C@]4(C)[C@H]3CC[C@]12C)C(C)C` [stigmasterol, 3β-stigmasta-5,22,-dien-3-ol], the “Pro-inflammatory and matrix degradation mediators (MMP-3, MMP-13, ADAMTS-4, PGE2)” value in the assay with chondrocytes is “inhibits several pro-inflammatory and matrix degradation mediators”.

For `C[S+]([O-])CCCC/C(=N\OS(=O)(=O)O)S[C@@H]1O[C@H](CO)[C@@H](O)[C@H](O)[C@H]1O` (stereo partly drawn) [glucoraphanin, 4-methylsulfinylbutyl glucosinolate], the “Conversion of glucoraphanin to sulforaphane (amount consumed versus amount produced)” value in the assay on myrosinase [1] is on record as “equimolar conversion of glucoraphanin to sulforaphane”.

Turning to `O=C1O[C@H]([C@@H](O)CO)C(O)=C1O` [Ascorbic Acid, ascorbic acid], in the assay on myrosinase [2], the “Yield of sulforaphane versus ascorbic acid concentration” value is “direct correlation between larger yield of sulforaphane and higher concentrations of ascorbic acid”. Further, in assay [3] (0 μM ascorbic acid, linear regression 0-60 min), the “Slope (rate of glucoraphanin consumption)” value was -0.09293 µmol/min. In addition, the “Glucoraphanin (GR) content” value in assay [3] (0 μM ascorbic acid, time 15 min, 38° C.) was found to be 92.24 µmol; in assay [3] (0 μM ascorbic acid, time 30 min, 38° C.), 90.71 µmol; in assay [3] (0 μM ascorbic acid, time 45 min, 38° C.), 89.44 µmol; in assay [3] (0 μM ascorbic acid, time 60 min, 38° C.), 87.79 µmol. The “Increase of reaction rate relative to absence of ascorbic acid” value in assay [3] (600 μmoles/Liter ascorbic acid, 38° C.) worked out at 13 fold.
